Test results from US20150336889A1, “INDOLE DERIVATIVES, PHARMACEUTICAL COMPOSITIONS CONTAINING SUCH INDOLES AND THEIR USE AS DNA METHYLATION MODULATORS” (IKERCHEM, S.L., priority 2012, published 2015).
Structures can show the parent of a compound that is named as a salt.

What was measured:
[1] = target: T1, Human DNMT1 (Homo sapiens, UniProt P26358); test: DNMT1 enzymatic activity inhibition, radioisotope-based 3H-SAM filter binding assay; assay type: biochemical; details: 1 μM SAM, 25 nM DNMT1, 0.005 mg/ml Poly(dI-dC), 30° C. 1 hour, 10-dose
T1 construct: a-a 2-1632, with N-terminal GST tag; GST (N)
Procedure: The inhibition of the enzymatic activity of DNMT1 was tested using low volume radioisotope-based assay which uses tritium-labeled AdoMet (^3H-SAM) as a methyl donor. Inhibitors diluted in DMSO were added by using acoustic technology (Echo550, Labcyte Inc. Sunnyvale, Calif.) into enzyme/substrate mixture in nano-liter range. The reaction was initiated by the addition of ^3H-SAM, and incubated at 30° C. for 1 hour. Total final methylations on the substrate poly(dI-dC) were detected by a filter binding approach. Data analysis was performed using GraphPad Prism software (La Jolla, Calif.) for IC50 curve fits.

[2] = test system: U-87MG; test: Cancer cell growth inhibition, U-87MG; assay type: cell-based; details: Homo sapiens, Brain, cell viability, 72 h
Procedure: (§1) Cell culture-based assays were used to evaluate the ability of compounds of the invention to inhibit cancer cell growth inhibition.
(§2) Cells were obtained from the American Type Culture Collection (ATCC) and European Collection of Cell Cultures (ECACC).
(§3) Cells were thawed in their appropriate media plus supplements (see table below). Cells were passaged at confluence by washing once in HBSS cation-free followed by a 3 minutes incubation with trypsin ([0.5 μg/ml]/EDTA [0.2 μg/ml]) (Gibco-BRL, 15400054) solution in HBSS at 37° C. (except non-adherent cell lines), and transferred to their appropriate media plus supplements. Prior to seeding at defined cell concentration, cells were recovered in medium, centrifuged and taken up in medium, and counted.
(§4) Cells were plated at 3000/5000/10000 cells/well in 100 μl media in tissue culture 96 well plates (Cultek). After 24 h, media was supplemented by 100 μl/well of diluted IPDNs at 100 μM.
(§5) The Hexosaminidase assay was used for the adherent cell lines, whereas the AlamarBlue® assay was used for the non-adherent cell lines.
(§6) Dose-response curves were generated by serial dilutions (1:1) of the compounds. […] Reagent blanks, containing media plus colorimetric reagent without cells were run on each plate. Blank values were subtracted from test values and were routinely 5-10% of uninhibited control values. Plates were incubated 72 h, and living cell number was determined by AlamarBlue® and Hexosaminidase test. The advantages of using those assays are that both can be done in the same microwell plate. AlamarBlue® assay: plates were incubated 72 h and living cell number was determined by AlamarBlue (Biosource DAL1100). After 4 h incubation at 37° C., relative fluorescent intensity, which correlates with the number of living cells, was read in a Cytofluor plate reader (Millipore) at 535/590 nm (Excitation/emission). The hexosaminidase activity was measured according to the following protocol: the media was removed and cells were washed once with PBS.
(§7) Data analysis was done by calculating the percentage of cell viability normalized in front of negative control values, which were considered as a 100%. The curve was adjusted using a sigmoidal dose-response (variable slope) equation and EC50 values were obtained from the equation
(§8) where, X is the logarithm of concentration. Y is the response. Bottom is the Y value at the bottom plateau Top is the Y value at the top plateau LogEC50 is the X value when the response is halfway between Bottom and Top. With different kinds of variables, this variable is sometimes called ED50 (effective dose, 50%), or IC50 (inhibitory concentration, 50%, used when the curve goes downhill).

[3] = test system: MDA-MB-435; test: Cancer cell growth inhibition, MDA-MB-435; assay type: cell-based; details: Homo sapiens; Melanoma, MDA-MB-435, cell viability, 72 h
Procedure: as §1, §2, §3, §4, §5, §6, §7, §8

[4] = test system: MiaPaCa-2; test: Cancer cell growth inhibition, MiaPaCa-2; assay type: cell-based; details: Homo sapiens, MIA PaCa-2; Pancreatic, MiaPaCa-2, cell viability, 72 h
Procedure: as §1, §2, §3, §4, §5, §6, §7, §8

[5] = test system: T47D; test: Cancer cell growth inhibition, T47D; assay type: cell-based; details: Homo sapiens, Breast, cell viability, 72 h
Procedure: as §1, §2, §3, §4, §5, §6, §7, §8

[6] = test system: MCF-7; test: Cancer cell growth inhibition, MCF-7; assay type: cell-based; details: Homo sapiens, MCF7; Breast, MCF-7, cell viability, 72 h
Procedure: as §1, §2, §3, §4, §5, §6, §7, §8

[7] = test system: SK-HEP-1; test: Cancer cell growth inhibition, SK-HEP-1; assay type: cell-based; details: Homo sapiens, SK-HEP1; Liver, SK-HEP-1, cell viability, 72 h
Procedure: as §1, §2, §3, §4, §5
as §6, with “PBS. […]” for “PBS.”

[8] = test system: HCT-116; test: Cancer cell growth inhibition, HCT-116; assay type: cell-based; details: Homo sapiens; Colorectal, HCT-116, cell viability, 72 h
Procedure: as §1, §2, §3, §4, §5, §6, §7, §8

[9] = test system: A-431; test: Cancer cell growth inhibition, A-431; assay type: cell-based; details: Homo sapiens; Epidermoid, A-431, cell viability, 72 h
Procedure: as §1, §2, §3, §4, §5, §6, §7, §8

[10] = test system: Jurkat; test: Cancer cell growth inhibition, Jurkat; assay type: cell-based; details: Homo sapiens, Hematologic, cell viability, 72 h
Procedure: as §1, §2, §3, §4, §5, §6, §7, §8

[11] = test system: CCFR-CEM; test: Cancer cell growth inhibition, CCFR-CEM; assay type: cell-based; details: Hematologic, cell viability, 72 h
Procedure: as §1, §2, §3, §4, §5, §6, §7, §8

[12] = test system: NCI-H358; test: Cancer cell growth inhibition, NCI-H358; assay type: cell-based; details: Homo sapiens; Lung, NCI-H358, cell viability, 72 h
Procedure: as §1, §2, §3, §4, §5, §6, §7, §8

[13] = test system: Daoy; test: Cancer cell growth inhibition, Daoy; assay type: cell-based; details: Homo sapiens, Brain, cell viability, 72 h
Procedure: as §1, §2, §3, §4, §5, §6, §7, §8

[14] = test system: NCI-H1975; test: Cancer cell growth inhibition, NCI-H1975; assay type: cell-based; details: Homo sapiens; Lung, NCI-H1975, cell viability, 72 h
Procedure: as §1, §2, §3, §4, §5, §6, §7, §8

[15] = test system: RPMI-8226; test: Cancer cell growth inhibition, RPMI-8226; assay type: cell-based; details: Homo sapiens; Multiple Myelome, RPMI-8226, cell viability, 72 h
Procedure: as §1, §2, §3, §4, §5, §6, §7, §8

T1 sequence (P26358 2-1632 isoform P26358-2): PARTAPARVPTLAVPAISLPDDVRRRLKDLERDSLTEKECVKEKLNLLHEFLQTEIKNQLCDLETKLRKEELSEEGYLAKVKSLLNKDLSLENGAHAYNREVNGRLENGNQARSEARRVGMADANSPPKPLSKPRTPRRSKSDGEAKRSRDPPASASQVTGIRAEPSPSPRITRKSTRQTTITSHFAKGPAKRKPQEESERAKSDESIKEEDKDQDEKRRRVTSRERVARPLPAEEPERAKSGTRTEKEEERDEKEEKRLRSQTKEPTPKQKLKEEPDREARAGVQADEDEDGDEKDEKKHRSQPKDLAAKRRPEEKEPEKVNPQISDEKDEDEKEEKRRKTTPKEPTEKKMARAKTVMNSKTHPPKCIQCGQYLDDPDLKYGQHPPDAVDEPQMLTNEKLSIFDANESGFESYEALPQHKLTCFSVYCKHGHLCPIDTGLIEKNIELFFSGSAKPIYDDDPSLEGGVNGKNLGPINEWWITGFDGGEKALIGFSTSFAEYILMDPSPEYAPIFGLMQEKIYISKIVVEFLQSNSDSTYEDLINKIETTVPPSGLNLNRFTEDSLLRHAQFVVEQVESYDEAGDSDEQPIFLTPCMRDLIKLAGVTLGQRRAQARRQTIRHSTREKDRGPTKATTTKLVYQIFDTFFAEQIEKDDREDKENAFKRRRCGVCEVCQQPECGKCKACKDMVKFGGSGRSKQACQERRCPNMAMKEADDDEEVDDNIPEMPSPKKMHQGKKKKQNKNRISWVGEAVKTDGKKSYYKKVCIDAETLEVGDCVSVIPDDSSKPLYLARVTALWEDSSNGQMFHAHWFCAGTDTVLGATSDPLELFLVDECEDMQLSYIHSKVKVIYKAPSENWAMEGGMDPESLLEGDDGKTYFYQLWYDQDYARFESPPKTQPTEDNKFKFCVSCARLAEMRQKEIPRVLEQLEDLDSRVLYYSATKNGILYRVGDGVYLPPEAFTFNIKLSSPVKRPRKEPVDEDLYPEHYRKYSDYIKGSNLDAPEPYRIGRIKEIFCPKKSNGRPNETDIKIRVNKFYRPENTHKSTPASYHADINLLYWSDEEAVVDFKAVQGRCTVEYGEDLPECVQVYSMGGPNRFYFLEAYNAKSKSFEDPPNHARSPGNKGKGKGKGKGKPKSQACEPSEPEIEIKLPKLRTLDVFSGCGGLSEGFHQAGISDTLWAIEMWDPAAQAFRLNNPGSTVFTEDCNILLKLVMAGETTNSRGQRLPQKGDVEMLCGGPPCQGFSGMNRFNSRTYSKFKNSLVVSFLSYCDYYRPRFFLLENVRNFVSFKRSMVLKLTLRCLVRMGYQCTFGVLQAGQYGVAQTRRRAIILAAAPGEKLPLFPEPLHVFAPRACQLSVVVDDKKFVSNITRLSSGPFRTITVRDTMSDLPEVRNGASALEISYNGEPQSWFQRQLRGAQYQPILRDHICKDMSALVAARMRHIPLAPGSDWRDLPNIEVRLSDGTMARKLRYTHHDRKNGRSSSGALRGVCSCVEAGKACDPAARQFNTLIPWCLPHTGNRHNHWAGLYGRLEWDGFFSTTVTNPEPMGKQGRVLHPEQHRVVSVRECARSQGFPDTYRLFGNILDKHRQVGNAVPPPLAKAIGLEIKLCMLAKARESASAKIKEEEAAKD

| Compound | IC50 [1] | further results |
| --- | --- | --- |
| COc1ccc2c(-c3cccc(O)c3)cn(CC(=O)c3cccc(O)c3)c2c1 [Example 2, 1-(3-hydroxyphenyl)-2-[3-(3-hydroxyphenyl)-6-methoxy-1H-indol-1-yl]ethanone] | 30.6 µM |  |
| COc1ccc2c(-c3ccccc3O)cn(CC(=O)c3ccccc3O)c2c1 [Example 3, 1-(2-hydroxyphenyl)-2-[3-(2-hydroxyphenyl)-6-methoxy-1H-indol-1-yl]ethanone] | 56.7 µM |  |
| COc1ccc2c(-c3ccc(O)c(O)c3O)cn(CC(=O)c3ccc(O)c(O)c3O)c2c1 [Example 5, 2-[6-methoxy-3-(2,3,4-trihydroxyphenyl)-1H-indol-1-yl]-1-(2,3,4-trihydroxyphenyl) ethanone] | 3.53 µM |  |
| COc1cc(OC)c2c(-c3ccccc3O)cn(CC(=O)c3ccccc3O)c2c1 [Example 7, 1-(2-hydroxyphenyl)-2-[3-(2-hydroxyphenyl)-4,6-dimethoxy-1H-indol-1-yl]ethanone] | 32.9 µM |  |
| COc1cc(OC)c2c(-c3ccc(O)cc3O)cn(CC(=O)c3ccc(O)cc3O)c2c1 [Example 9, 1-(2,4-dihydroxyphenyl)-2-[3-(2,4-dihydroxyphenyl)-4,6-dimethoxy-1H-indol-1-yl]ethanone] | 181 µM |  |
| COc1cc(OC)c2c(-c3cc(O)cc(O)c3)cn(CC(=O)c3cc(O)cc(O)c3)c2c1 [Example 10, 1-(3,5-dihydroxyphenyl)-2-[3-(3,5-dihydroxyphenyl)-4,6-dimethoxy-1H-indol-1-yl]ethanone] | 44.6 µM |  |
| COc1cc(OC)c2c(-c3ccc(F)cc3)cn(CC(=O)c3ccc(F)cc3)c2c1 [Example 12, 1-(4-fluorophenyl)-2-[3-(4-fluorophenyl)-4,6-dimethoxy-1H-indol-1-yl]ethanone] | 104 µM |  |
| COc1ccc(OC)c2c1c(-c1ccc(O)cc1)cn2CC(=O)c1ccc(O)cc1 [Example 13, 1-(4-hydroxyphenyl)-2-[3-(4-hydroxyphenyl)-4,7-dimethoxy-1H-indol-1-yl]ethanone] | 98.4 µM |  |
| COc1cc2c(cc1O)c(-c1ccc(O)cc1)cn2CC(=O)c1ccc(O)cc1 [Example 15, 2-[5-hydroxy-3-(4-hydroxyphenyl)-6-methoxy-1H-indol-1-yl]-1-(4-hydroxyphenyl)ethanone] | 576 µM |  |
| O=C(Cn1cc(-c2ccc(O)cc2)c2ccc(O)cc21)c1ccc(O)cc1 [Example 17, 2-[6-hydroxy-3-(4-hydroxyphenyl)-1H-indol-1-yl]-1-(4-hydroxyphenyl) ethanone] | 50.9 µM |  |
| O=C(Cn1cc(-c2ccc(O)cc2)c2cc(O)ccc21)c1ccc(O)cc1 [Example 18, 2-[5-hydroxy-3-(4-hydroxyphenyl)-1H-indol-1-yl]-1-(4-hydroxyphenyl) ethanone] | 32.9 µM |  |
| O=C(Cn1cc(-c2ccc(O)cc2)c2cc(F)ccc21)c1ccc(O)cc1 [Example 19, 2-[5-fluoro-3-(4-hydroxyphenyl)-1H-indol-1-yl]-1-(4-hydroxyphenyl) ethanone] | 59.1 µM |  |
| COc1cc(OC)c2c(-c3ccc(O)cc3)cn(C/C(=N\O)c3ccc(O)cc3)c2c1 [Example 22, (Z)-1-(4-hydroxyphenyl)-2-[3-(4-hydroxyphenyl)-4,6-dimethoxy-1H-indol-1-yl]ethanone oxime] | 22.5 µM |  |
| COc1cc(OC)cc(N(CC(=O)c2ccc(O)c(O)c2O)CC(=O)c2ccc(O)c(O)c2O)c1 [Example 24, 2,2′-[(3,5-dimethoxyphenyl)azanediyl]-bis[1-(2,3,4-trihydroxyphenyl)ethanone]] | 15.6 µM |  |
| COc1cc(OC)c2c(-c3ccc(O)cc3)cn(CC(=O)c3ccc(O)cc3)c2c1 [Example 27, calcium phenoxide salt of 1-(4-hydroxyphenyl)-2-[3-(4-hydroxyphenyl)-4,6-dimethoxy-1H-indol-1-yl]ethanone] | 46.8 µM |  |
| COc1cc(OC)c2c(-c3ccc(OC(C)=O)c(OC(C)=O)c3)cn(CC(=O)c3ccc(OC(C)=O)c(OC(C)=O)c3)c2c1 [Example 30, 4-{1-[2-(3,4-diacetoxyphenyl)-2-oxoethyl]-4,6-dimethoxy-1H-indol-3-yl}-1,2-phenylene diacetate] |  | EC50 [2]: 75 µM; EC50 [3]: 23 µM; EC50 [4]: 55 µM; EC50 [5]: 47 µM; EC50 [6]: 88 µM; EC50 [7]: 39 µM; EC50 [8]: 64 µM; EC50 [9]: 88 µM; EC50 [10]: 49 µM; EC50 [11]: 40 µM; EC50 [12]: 53 µM; EC50 [13]: 50 µM; EC50 [14]: 47 µM; EC50 [15]: 36 µM |

Further compounds by falling IC50 [1], results first:

| IC50 [1] | Compound | further results |
| --- | --- | --- |
| 241 µM | O=C(Cn1cc(-c2ccc(O)cc2)c2ccccc21)c1ccc(O)cc1 [Example 20, 1-(4-hydroxyphenyl)-2-[3-(4-hydroxyphenyl)-1H-indol-1-yl]ethanone] |  |
| 104 µM | COc1cc(OC)c2c(-c3ccc(O)cc3)cn(C/C(=N/O)c3ccc(O)cc3)c2c1 [Example 21, (E)-1-(4-Hydroxyphenyl)-2-[3-(4-hydroxyphenyl)-4,6-dimethoxy-1H-indol-1-yl]ethanone oxime] |  |
| 73.1 µM | COc1ccc2c(-c3ccc(O)cc3)cn(CC(=O)c3ccc(O)cc3)c2c1 [Example 1, 1-(4-hydroxyphenyl)-2-[3-(4-hydroxyphenyl)-6-methoxy-1H-indol-1-yl]ethanone] |  |
| 43.3 µM | COc1cc2c(-c3ccc(O)cc3)cn(CC(=O)c3ccc(O)cc3)c2cc1OC [Example 14, 1-(4-hydroxyphenyl)-2-[3-(4-hydroxyphenyl)-5,6-dimethoxy-1H-indol-1-yl]ethanone] |  |
| 40.4 µM | COc1cc(OC)c2c(-c3ccc(O)cc3)cn(CC(=O)c3ccc(O)cc3)c2c1 [Example 26, potassium phenoxide salt of 1-(4-hydroxyphenyl)-2-[3-(4-hydroxyphenyl)-4,6-dimethoxy-1H-indol-1-yl]ethanone] |  |
| 27.4 µM | COc1cccc(N(CC(=O)c2ccc(O)c(O)c2O)CC(=O)c2ccc(O)c(O)c2O)c1 [Example 23, 2,2′-[(3-methoxyphenyl)azanediyl]-bis[1-(2,3,4-trihydroxyphenyl)ethanone]] |  |
| 19.5 µM | COc1ccc2c(-c3ccc(O)cc3)cn(CC(=O)c3ccc(O)cc3)c2c1 [Example 25, potassium phenoxide salt of 1-(4-hydroxyphenyl)-2-[3-(4-hydroxyphenyl)-6-methoxy-1H-indol-1-yl]ethanone] |  |
